Source: patent US20240374735A1, “AROMATIC BORON-CONTAINING COMPOUNDS AND INSULIN ANALOGS” (PROTOMER TECHNOLOGIES INC., priority 2020, published 2024)

Test system: diabetic B6 mice (streptozocin)
Assay: Glucose challenge in STZ diabetic mice
Format: in vivo
Conditions: injected subcutaneously or intraperitoneally, glucose challenge one hour post-injection
Protocol: Diabetes was induced in 12-week-old B6 mice using streptozocin (STZ) treatment. Three weeks after the final STZ treatment, blood glucose of the mice was sampled from lateral tail vein to confirm diabetes. Mice with blood glucose of >200 mg/dl were deemed to be diabetic and fasted for 1-6 hours prior to injection. Human insulin and a compound of Formula I in sterile phosphate buffered saline, pH 7.4 were injected either subcutaneously via neck scruff or intraperitoneally, depending on the experiment. Blood glucose was sampled with a glucometer via lateral tail vein at 15-minute intervals. After one hour of initial stabilization of blood glucose levels post-insulin injection, mice were challenged with an intraperitoneal injection of glucose (e.g., 2 g/kg, 4 g/kg, or 6 g/kg; the actual dose depends on the example and experiment) in sterile phosphate buffered saline.

## human insulin: Human insulin, comparator in the mouse experiments; biosynthetic human insulin (BHI) in the clamp
  Blood glucose response after intraperitoneal glucose bolus: did not activate in a glucose-dependent manner
